Reference: patent publication US7759345B2, “Antitumoral derivatives of ET-743” (priority 2001, dated 2010)
Where two headings read alike, the source gives them in different places.

Key:
Skeletal = assay: In vitro toxicity, Skeletal
From the text: (§2) Toxicity was asssessed by the methods reported in Toxicology in Vitro, 15 (2001) 571-577, J. Luber Narod et al.: “Evaluation of the use of in vitro methodolodies as tools for screening new compounds for potential in vivo toxicity”.

SK-MEL-28 = assay: Inhibition of cells growth by colorimetric assay (SRB), SK-MEL-28; assay type: cell-based; settings: for GI50: read-out: GI50 MEL-28
Summary of the method: (§1)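 Compound in DMSO/EtOH/PBS vehicle was applied at 10 to 10^−8 μg/ml to attached cells (5×10^3/well, 18 h) for 48 h. Cells were then fixed with cold TCA and stained with 0.4% SRB in 1% acetic acid.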

K-562 = assay: Inhibition of cells growth by colorimetric assay (SRB), K-562; assay type: cell-based; settings: for GI50: read-out: GI50 K-562
Summary of the method: as §1

LNCaP = assay: Inhibition of cells growth by colorimetric assay (SRB), LNCaP; assay type: cell-based; settings: SRB, 48 hours exposure
Summary of the method: as §1

SK-BR-3 = assay: Inhibition of cells growth by colorimetric assay (SRB), SK-BR-3; assay type: cell-based; settings: for GI50: read-out: GI50 SK-BR3
Summary of the method: as §1

LoVo-Dox = assay: Inhibition of cells growth by colorimetric assay (SRB), LoVo-Dox; assay type: cell-based; settings: for GI50: read-out: GI50 LOVO-DOX
Summary of the method: as §1

SK-OV-3 = assay: Inhibition of cells growth by colorimetric assay (SRB), SK-OV-3; assay type: cell-based; settings: for GI50: read-out: GI50 SK-OV3
Summary of the method: as §1

IGROV-1 = assay: Inhibition of cells growth by colorimetric assay (SRB), IGROV-1; assay type: cell-based; settings: for GI50: read-out: GI50 IGROV
Summary of the method: as §1

PANC-1 = assay: Inhibition of cells growth by colorimetric assay (SRB), PANC-1; assay type: cell-based; settings: for GI50: read-out: GI50 PANC-1
Summary of the method: as §1

Heart = assay: In vitro toxicity, Heart
From the text: as §2

HT-29 = assay: Inhibition of cells growth by colorimetric assay (SRB), HT-29; assay type: cell-based; settings: for GI50: read-out: GI50 HT-29
Summary of the method: as §1

Myelo = assay: In vitro toxicity, Myelo
From the text: as §2

HMEC1 = assay: Inhibition of cells growth by colorimetric assay (SRB), HMEC1; assay type: cell-based; settings: for GI50: read-out: GI50 HMEC-1
Summary of the method: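 First, cells were plated at 5×10^3 per well and left 18 h to attach. Next, compound was added over 10 to 10^−8 μg/ml for 48 h. Finally, cells were TCA-fixed, SRB-stained and absorbance read at 490 nm.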

IGROV-ET = assay: Inhibition of cells growth by colorimetric assay (SRB), IGROV-ET; assay type: cell-based; settings: for GI50: read-out: GI50 IGROV-ET
Summary of the method: as §1

Kidney = assay: In vitro toxicity, Kidney
From the text: as §2

Liver = assay: In vitro toxicity, Liver
From the text: as §2

A-549 = assay: Inhibition of cells growth by colorimetric assay (SRB), A-549; assay type: cell-based; settings: for GI50: read-out: GI50 A-549
Summary of the method: as §1

LoVo = assay: Inhibition of cells growth by colorimetric assay (SRB), LoVo; assay type: cell-based; settings: for GI50: read-out: GI50 LOVO
Summary of the method: as §1

DU-145 = assay: Inhibition of cells growth by colorimetric assay (SRB), DU-145; assay type: cell-based; settings: for GI50: read-out: GI50 DU-145
Summary of the method: as §1

[1] = LOVO-DOX, SRB, 48 hours exposure
[2] = IGROV-ET, SRB, 48 hours exposure

COc1cc2c(cc1OC(=O)C(F)(F)C(F)(F)C(F)(F)F)CCN[C@]21CS[C@@H]2c3c(OC(C)=O)c(C)c4c(c3[C@H](COC1=O)N1C2[C@H]2c3c(cc(C)c(OC)c3O)C[C@@H]([C@@H]1O)N2C)OCO4 (stereo partly shown) [Compound 74]
Toxicity Data Skeletal (Skeletal): 8.30E-10 | GI50 (SK-MEL-28; Homo sapiens, SK-MEL-28, 48 h): 0.275 nM | CC50 (SK-MEL-28; Homo sapiens, SK-MEL-28, 48 h, read-out: LC50 MEL-28, MEL-28, SRB, 48 hours exposure): 0.994 nM | TGI MEL-28 (SK-MEL-28; MEL-28, SRB, 48 hours exposure): 5.22E-10 | GI50 (K-562; Homo sapiens, K562, 48 h): 0.0526 nM | LC50 (50% cell killing) (K-562; Homo sapiens, K562, 48 h, read-out: LC50 K-562, K-562, SRB, 48 hours exposure): 0.661 nM | TGI K-562 (K-562; K-562, SRB, 48 hours exposure): 2.10E-10 | GI50 (LNCaP; Homo sapiens, LNCaP, 48 h, read-out: GI50 LNCAP, LNCAP): 0.129 nM | CC50 (LNCaP; Homo sapiens, LNCaP, 48 h, read-out: LC50 LNCAP, LNCAP): 0.564 nM | TGI LNCAP (LNCaP; LNCAP): 2.69E-10 | GI50 (SK-BR-3; Homo sapiens, SK-BR-3, 48 h): 0.275 nM | CC50 (SK-BR-3; Homo sapiens, SK-BR-3, 48 h, read-out: LC50 SK-BR3, SK-BR3, SRB, 48 hours exposure): 4.18 nM | TGI SK-BR3 (SK-BR-3; SK-BR3, SRB, 48 hours exposure): 7.64E-10 | GI50 (LoVo-Dox; Homo sapiens, 48 h): 6.31 nM | CC50 (LoVo-Dox; Homo sapiens, 48 h, read-out: LC50 LOVO-DOX, LOVO-DOX, SRB, 48 hours exposure): 359 nM | TGI LOVO-DOX (LoVo-Dox; [1]): 6.33E-08 | GI50 (SK-OV-3; Homo sapiens, SK-OV-3, 48 h): 0.248 nM | LC50 (SK-OV-3; Homo sapiens, SK-OV-3, 48 h, read-out: LC50 SK-OV3, SK-OV3, SRB, 48 hours exposure): 1.11 nM | TGI SK-OV3 (SK-OV-3; SK-OV3, SRB, 48 hours exposure): 4.76E-10 | GI50 (IGROV-1; Homo sapiens, IGROV-1, 48 h): 0.237 nM | CC50 (IGROV-1; Homo sapiens, IGROV-1, 48 h, read-out: LC50 IGROV, IGROV, SRB, 48 hours exposure): 0.911 nM | TGI IGROV (IGROV-1; IGROV, SRB, 48 hours exposure): 4.65E-10 | GI50 (PANC-1; Homo sapiens, PANC-1, 48 h): 0.313 nM | LC50 (concentration for 50% net cell kill) (PANC-1; Homo sapiens, PANC-1, 48 h, read-out: LC50 PANC-1, PANC-1, SRB, 48 hours exposure): 2.55 nM | TGI PANC-1 (PANC-1; PANC-1, SRB, 48 hours exposure): 6.77E-10 | Toxicity Data Heart (Heart): 2.86E-08 | TGI HT-29 (HT-29; HT-29, SRB, 48 hours exposure): 8.35E-10 | GI50 (HT-29; Homo sapiens, HT-29, 48 h): 0.354 nM | LC50 (concentration for 50% cell killing) (HT-29; Homo sapiens, HT-29, 48 h, read-out: LC50 HT-29, HT-29, SRB, 48 hours exposure): 10400 nM | Toxicity Data Myelo (Myelo): 3.30E-08 | TGI HMEC-1 (HMEC1; HMEC-1, SRB, 48 hours exposure): 1.45E-08 | GI50 (HMEC1; Homo sapiens, HMEC-1, 48 h): 0.598 nM | LC50 (HMEC1; Homo sapiens, HMEC-1, 48 h, read-out: LC50 HMEC-1, HMEC-1, SRB, 48 hours exposure): 4700 nM | GI50 (IGROV-ET; Homo sapiens, 48 h): 1.76 nM | CC50 (IGROV-ET; Homo sapiens, 48 h, read-out: LC50 IGROV-ET, IGROV-ET, SRB, 48 hours exposure): 19.7 nM | TGI IGROV-ET (IGROV-ET; [2]): 4.69E-09 | Toxicity Data Kidney (Kidney): 3.05E-08 | Toxicity Data Liver (Liver): 3.07E-08 | TGI A-549 (A-549; A-549, SRB, 48 hours exposure): 9.04E-10 | GI50 (A-549; Homo sapiens, A549, 48 h): 0.399 nM | LC50 (concentration for 50% cell killing) (A-549; Homo sapiens, A549, 48 h, read-out: LC50 A-549, A-549, SRB, 48 hours exposure): 6.38 nM | GI50 (LoVo; Homo sapiens, LoVo, 48 h): 0.369 nM | LC50 (concentration for 50% cell killing) (LoVo; Homo sapiens, LoVo, 48 h, read-out: LC50 LOVO, LOVO, SRB, 48 hours exposure): 11 nM | TGI LOVO (LoVo; LOVO, SRB, 48 hours exposure): 1.16E-09 | TGI DU-145 (DU-145; DU-145, SRB, 48 hours exposure): 7.61E-10 | GI50 (DU-145; Homo sapiens, DU-145, 48 h): 0.366 nM | CC50 (DU-145; Homo sapiens, DU-145, 48 h, read-out: LC50 DU-145, DU-145, SRB, 48 hours exposure): 2790 nM

C=COC(=O)Oc1cc2c(cc1OC)[C@@]1(CS[C@@H]3c4c(OC(C)=O)c(C)c5c(c4[C@H](COC1=O)N1C3[C@H]3c4c(cc(C)c(OC)c4O)C[C@@H]([C@@H]1O)N3C)OCO5)NCC2 (stereo partly shown) [Compound 75]
Toxicity Data Skeletal (Skeletal): 4.06E-09 | LC50 (concentration killing 50% of cells) (SK-MEL-28; MEL-28, SRB, 48 hours exposure): 11.7 nM | TGI MEL-28 (SK-MEL-28; MEL-28, SRB, 48 hours exposure): 4.82E-09 | GI50 (SK-MEL-28; MEL-28, SRB, 48 hours exposure): 2 nM | LC50 (50% lethal concentration) (K-562; K-562, SRB, 48 hours exposure): 4.16 nM | TGI K-562 (K-562; K-562, SRB, 48 hours exposure): 7.42E-10 | GI50 (K-562; K-562, SRB, 48 hours exposure): 0.364 nM | TGI LNCAP (LNCaP; LNCAP): 8.31E-10 | GI50 (LNCaP; LNCAP, read-out: GI50 LNCAP): 0.579 nM | CC50 (LNCaP; LNCAP, read-out: LC50 LNCAP): 1.19 nM | TGI SK-BR3 (SK-BR-3; SK-BR3, SRB, 48 hours exposure): 3.21E-09 | GI50 (SK-BR-3; SK-BR3, SRB, 48 hours exposure): 1.2 nM | CC50 (SK-BR-3; SK-BR3, SRB, 48 hours exposure, read-out: LC50 SK-BR3): 8.58 nM | TGI LOVO-DOX (LoVo-Dox; [1]): 1.23E-07 | GI50 (LoVo-Dox; [1]): 42.6 nM | TGI SK-OV3 (SK-OV-3; SK-OV3, SRB, 48 hours exposure): 1.04E-08 | GI50 (SK-OV-3; SK-OV3, SRB, 48 hours exposure): 2.19 nM | TGI IGROV (IGROV-1; IGROV, SRB, 48 hours exposure): 1.63E-09 | GI50 (IGROV-1; IGROV, SRB, 48 hours exposure): 0.52 nM | CC50 (IGROV-1; IGROV, SRB, 48 hours exposure, read-out: LC50 IGROV): 10 nM | LC50 (concentration killing 50% of cells) (PANC-1; PANC-1, SRB, 48 hours exposure): 35.9 nM | TGI PANC-1 (PANC-1; PANC-1, SRB, 48 hours exposure): 8.45E-09 | GI50 (PANC-1; PANC-1, SRB, 48 hours exposure): 3.04 nM | Toxicity Data Heart (Heart): 8.17E-08 | TGI HT-29 (HT-29; HT-29, SRB, 48 hours exposure): 1.18E-08 | GI50 (HT-29; HT-29, SRB, 48 hours exposure): 3.89 nM | CC50 (HT-29; HT-29, SRB, 48 hours exposure, read-out: LC50 HT-29): 120 nM | Toxicity Data Myelo (Myelo): 5.85E-08 | TGI HMEC-1 (HMEC1; HMEC-1, SRB, 48 hours exposure): 5.77E-08 | GI50 (HMEC1; HMEC-1, SRB, 48 hours exposure): 6.97 nM | TGI IGROV-ET (IGROV-ET; [2]): 6.58E-09 | GI50 (IGROV-ET; [2]): 3.38 nM | CC50 (IGROV-ET; IGROV-ET, SRB, 48 hours exposure, read-out: LC50 IGROV-ET): 12 nM | Toxicity Data Kidney (Kidney): 3.86E-08 | Toxicity Data Liver (Liver): 4.11E-08 | TGI A-549 (A-549; A-549, SRB, 48 hours exposure): 8.23E-09 | GI50 (A-549; A-549, SRB, 48 hours exposure): 4.26 nM | LC50 (50% lethal concentration) (A-549; A-549, SRB, 48 hours exposure, read-out: LC50 A-549): 49 nM | LC50 (concentration killing 50% of cells) (LoVo; LOVO, SRB, 48 hours exposure): 12 nM | TGI LOVO (LoVo; LOVO, SRB, 48 hours exposure): 4.82E-09 | GI50 (LoVo; LOVO, SRB, 48 hours exposure): 2.25 nM | TGI DU-145 (DU-145; DU-145, SRB, 48 hours exposure): 9.47E-10 | GI50 (DU-145; DU-145, SRB, 48 hours exposure): 0.563 nM | CC50 (DU-145; DU-145, SRB, 48 hours exposure, read-out: LC50 DU-145): 8330 nM
